Measurements: US20210038607A1, “OXADIAZOLYLTHIOPHENE DERIVATIVES USEFUL AS HISTONE DEACETYLASE INHIBITORS” (Karus Therapeutics Limited, priority 2018, published 2021)

Assays:
Human HDAC5 = molecular target: T1, Human HDAC5 (Homo sapiens, UniProt Q9UQL6); test: HDAC5 biochemical assay, class IIa-specific substrate; details: read-out: HDAC Isoform IC50 (nM) 5
T1 construct: full length with C-terminal His tag, MW=51.1 kDa; His (C); host or cells: baculovirus expression system
Outline: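 Full-length C-terminal His-tagged HDAC5 from baculovirus (0.05 ng/ul) incubated 30 min at room temperature with 50 μM Boc-Lys(trifluoroacetyl)-AMC and compound, Tris pH 8.0 buffer with BSA, 1% DMSO. Developer then releases AMC; fluorescence 360/460 nm.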

Human HDAC11 = molecular target: T2, Human HDAC11 (Homo sapiens, UniProt Q96DB2); test: HDAC11 biochemical assay, class IIa-specific substrate; details: read-out: HDAC Isoform IC50 (nM) 11
T2 construct: Human HDAC11 (full length); His (N); host or cells: baculovirus expression system
T2 sequence (Q96DB2 1-347): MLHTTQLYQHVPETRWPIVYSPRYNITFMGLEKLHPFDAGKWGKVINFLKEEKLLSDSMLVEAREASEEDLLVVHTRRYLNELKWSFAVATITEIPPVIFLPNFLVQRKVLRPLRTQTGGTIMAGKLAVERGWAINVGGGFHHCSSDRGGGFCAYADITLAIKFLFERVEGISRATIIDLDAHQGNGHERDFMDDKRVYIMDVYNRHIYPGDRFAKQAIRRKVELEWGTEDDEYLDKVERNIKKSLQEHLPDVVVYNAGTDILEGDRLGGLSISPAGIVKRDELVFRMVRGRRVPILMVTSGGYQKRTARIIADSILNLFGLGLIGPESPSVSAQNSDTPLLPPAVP
Method: Activity against all zinc-dependent HDACs 1 to 11 was assessed by using an acetylated AMC-labeled peptide substrate. The substrate RHKK(Ac)AMC was used for HDAC1, HDAC2, HDAC3, HDAC6 and HDAC10; the substrate used for HDAC8 was RHK(Ac)K(Ac)AMC. Activity against the class IIa HDACs (HDAC4, 5, 7, 9) and HDAC11 was determined using a class IIa-specific substrate, BOC-Lys(trifluoroacetyl)-AMC (“Trifluoroacetyl Lysine”; see Lahm et al, 2007, PNAS, 104, 17335-17340). All assays were based on the AMC-labeled substrate and developer combination.
The protocol involved a two-step reaction: first, the substrate with the acetylated lysine side chain is incubated with a sample containing HDAC activity, to produce the deacetylated products, which are then digested in the second step by the addition of developer to produce the fluorescent signal proportional to the amount of deacetylated substrates.
Human HDAC11 (full length) (GenBank Accession No. NM_024827) with N-terminal His tag, MW=42.9 kDa, expressed in baculovirus expression system.
Assay Buffer: 50 mM Tris-HCl, pH8.0, 137 mM NaCl, 2.7 mM KCl, 1 mM MgC2. Before use, 1 mg/mL BSA and DMSO are added.
HDAC11: 5 ng/ul HDAC11 and 50 μMHDAC substrate are in the reaction buffer with 1% DMSO final. Incubate for 30 minutes at 30° C.
Stage 1: Deacetylation of substrate by incubation of HDAC enzymes with compounds
Stage 2: Development by addition of Developer to digest the deacetylated substrate, and generate the fluorescent colour; Detection: 360/460 Ex/Em

Recombinant human HDAC6 = molecular target: T3, Recombinant human HDAC6 (Homo sapiens, UniProt Q9UBN7); test: HDAC6 biochemical assay, AMC-labeled peptide substrate; details: HDAC6; read-out: HDAC Isoform IC50 (nM) 6
T3 construct: full length, MW=159 kDa; GST (N); host or cells: Sf9 insect cells (baculovirus)
T3 sequence (Q9UBN7 1-1215): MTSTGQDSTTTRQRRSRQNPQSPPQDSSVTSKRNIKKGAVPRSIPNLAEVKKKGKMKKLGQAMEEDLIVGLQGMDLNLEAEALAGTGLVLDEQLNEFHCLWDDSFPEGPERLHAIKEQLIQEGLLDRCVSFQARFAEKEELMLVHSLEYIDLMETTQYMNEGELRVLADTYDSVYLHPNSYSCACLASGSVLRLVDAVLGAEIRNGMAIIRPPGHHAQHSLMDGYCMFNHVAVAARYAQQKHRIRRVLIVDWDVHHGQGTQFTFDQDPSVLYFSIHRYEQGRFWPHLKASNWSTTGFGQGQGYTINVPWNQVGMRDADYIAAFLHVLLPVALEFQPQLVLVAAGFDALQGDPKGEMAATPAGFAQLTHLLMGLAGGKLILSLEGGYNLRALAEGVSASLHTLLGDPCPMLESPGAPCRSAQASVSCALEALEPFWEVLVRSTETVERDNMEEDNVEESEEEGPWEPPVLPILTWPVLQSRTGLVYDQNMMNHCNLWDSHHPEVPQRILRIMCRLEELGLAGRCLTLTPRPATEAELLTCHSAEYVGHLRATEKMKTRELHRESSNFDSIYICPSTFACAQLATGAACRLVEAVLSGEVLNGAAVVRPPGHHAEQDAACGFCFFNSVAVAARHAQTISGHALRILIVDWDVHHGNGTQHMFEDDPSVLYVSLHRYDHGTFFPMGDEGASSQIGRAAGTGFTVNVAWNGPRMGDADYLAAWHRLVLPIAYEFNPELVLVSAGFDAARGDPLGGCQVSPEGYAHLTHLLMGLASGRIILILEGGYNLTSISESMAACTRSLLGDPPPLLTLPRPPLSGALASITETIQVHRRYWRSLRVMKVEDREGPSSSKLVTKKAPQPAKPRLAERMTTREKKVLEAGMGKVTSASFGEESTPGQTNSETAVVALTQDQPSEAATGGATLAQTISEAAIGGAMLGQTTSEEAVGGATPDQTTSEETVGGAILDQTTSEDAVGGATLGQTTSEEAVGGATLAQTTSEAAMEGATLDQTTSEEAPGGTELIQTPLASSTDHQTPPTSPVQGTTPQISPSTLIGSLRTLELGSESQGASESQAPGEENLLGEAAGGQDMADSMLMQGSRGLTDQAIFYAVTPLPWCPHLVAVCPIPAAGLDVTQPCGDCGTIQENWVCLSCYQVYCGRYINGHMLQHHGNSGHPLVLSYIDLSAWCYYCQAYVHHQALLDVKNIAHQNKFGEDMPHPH
Outline: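 Two-step fluorogenic read-out: enzyme deacetylates 50 μM RHKK(Ac)AMC for 1 h at 30° C in pH 8.0 Tris buffer with BSA and 1% DMSO, then developer cleavage gives signal at Ex 360/Em 460. Enzyme: 0.3 ng/ul recombinant full-length human HDAC6, GST-tagged, Sf9-expressed.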

T1 sequence (Q9UQL6 656-1122 limits assumed): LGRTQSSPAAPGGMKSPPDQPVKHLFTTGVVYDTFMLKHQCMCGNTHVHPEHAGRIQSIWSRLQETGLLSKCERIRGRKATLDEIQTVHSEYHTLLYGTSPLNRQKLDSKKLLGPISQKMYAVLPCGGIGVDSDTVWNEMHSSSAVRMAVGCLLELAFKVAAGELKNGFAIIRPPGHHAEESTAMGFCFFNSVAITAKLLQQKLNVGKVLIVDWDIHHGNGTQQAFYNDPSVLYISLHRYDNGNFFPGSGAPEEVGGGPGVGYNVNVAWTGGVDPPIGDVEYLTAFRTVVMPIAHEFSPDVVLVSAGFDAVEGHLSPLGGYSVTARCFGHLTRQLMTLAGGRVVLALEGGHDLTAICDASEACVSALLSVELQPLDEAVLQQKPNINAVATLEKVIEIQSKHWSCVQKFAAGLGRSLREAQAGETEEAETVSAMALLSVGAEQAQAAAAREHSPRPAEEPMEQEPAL

| IC50 (Human HDAC5) | IC50 (Human HDAC11) | IC50 (Recombinant human HDAC6) | Structure (SMILES) |
| --- | --- | --- | --- |
| ≤ 1000 nM | > 10000 nM | ≤ 500 nM | COC1(C(F)(F)F)CN(C(=O)c2cnnc(N(Cc3ccc(-c4noc(C(F)(F)F)n4)s3)c3cnccn3)c2)C1 [Example GL, 5-[3-Methoxy-3-(trifluoromethyl)azetidine-1-carbonyl]-N-(pyrazin-2-yl)-N-({5-[5-(trifluoromethyl)-1,2,4-oxadiazol-3-yl]thiophen-2-yl}methyl)pyridazin-3-amine] |
| ≤ 1000 nM | > 10000 nM | ≤ 500 nM | COc1cncc(N(Cc2ccc(-c3noc(C(F)(F)F)n3)s2)c2cnccn2)n1 [Example BQ, 6-Methoxy-N-(pyrazin-2-yl)-N-({5-[5-(trifluoromethyl)-1,2,4-oxadiazol-3-yl]thiophen-2-yl}methyl)pyrazin-2-amine] |
| ≤ 1000 nM | > 10000 nM | ≤ 1000 nM | FC(F)(F)c1nc(-c2ccc(CN(c3cnccn3)c3cc(N4CCCC4)cnn3)s2)no1 [Example FQ, N-(Pyrazin-2-yl)-5-(pyrrolidin-1-yl)-N-({5-[5-(trifluoromethyl)-1,2,4-oxadiazol-3-yl]thiophen-2-yl}methyl)pyridazin-3-amine] |
| ≤ 10000 nM | > 10000 nM | ≤ 500 nM | Fc1ccnc(N(Cc2ccc(-c3noc(C(F)(F)F)n3)s2)c2cnccn2)c1 [Example AG, N-(4-Fluoropyridin-2-yl)-N-({5-[5-(trifluoromethyl)-1,2,4-oxadiazol-3-yl]thiophen-2-yl}methyl)pyrazin-2-amine] |
| ≤ 500 nM | > 10000 nM | ≤ 500 nM | CC(C)OC1CN(C(=O)c2cnnc(N(Cc3ccc(-c4noc(C(F)(F)F)n4)s3)c3cnccn3)c2)C1 [Example GC, 5-[3-(Propan-2-yloxy)azetidine-1-carbonyl]-N-(pyrazin-2-yl)-N-({5-[5-(trifluoromethyl)-1,2,4-oxadiazol-3-yl]thiophen-2-yl}methyl)pyridazin-3-amine] |
| ≤ 1000 nM | > 10000 nM | ≤ 500 nM | O=C(c1cnnc(N(Cc2ccc(-c3noc(C(F)(F)F)n3)s2)c2cnccn2)c1)N1CC[S+]([O-])CC1 [Example FU, 4-{6-[(Pyrazin-2-yl)({5-[5-(trifluoromethyl)-1,2,4-oxadiazol-3-yl]thiophen-2-yl}methyl)amino]pyridazine-4-carbonyl}-1lambda4-thiomorpholin-1-one] |
| ≤ 500 nM | > 10000 nM | ≤ 500 nM | NC(=O)c1cnnc(N(Cc2ccc(-c3noc(C(F)(F)F)n3)s2)c2cnccn2)c1 [Example DX, 6-[(Pyrazin-2-yl)({5-[5-(trifluoromethyl)-1,2,4-oxadiazol-3-yl]thiophen-2-yl}methyl)amino]pyridazine-4-carboxamide] |
| ≤ 10000 nM | – | ≤ 500 nM | FC(F)(F)c1cnnc(N(Cc2ccc(-c3noc(C(F)(F)F)n3)s2)c2cc(C(F)(F)F)cnn2)c1 [Example EU, 5-(Trifluoromethyl)-N-({5-[5-(trifluoromethyl)-1,2,4-oxadiazol-3-yl]thiophen-2-yl}methyl)-N-[5-(trifluoromethyl)pyridazin-3-yl]pyridazin-3-amine] |
| ≤ 10000 nM | – | ≤ 500 nM | FC(F)(F)c1cnnc(N(Cc2ccc(-c3noc(C(F)(F)F)n3)s2)c2cccnn2)c1 [Example ER, N-(Pyridazin-3-yl)-5-(trifluoromethyl)-N-({5-[5-(trifluoromethyl)-1,2,4-oxadiazol-3-yl]thiophen-2-yl}methyl)pyridazin-3-amine] |

Second part, the molecule before the results:

| Structure (SMILES) | IC50 (Human HDAC5) | IC50 (Human HDAC11) | IC50 (Recombinant human HDAC6) |
| --- | --- | --- | --- |
| Nc1cnnc(N(Cc2ccc(-c3noc(C(F)(F)F)n3)s2)c2cnccn2)c1 [Example FL, N3-(Pyrazin-2-yl)-N3-({5-[5-(trifluoromethyl)-1,2,4-oxadiazol-3-yl]thiophen-2-yl}methyl)pyridazine-3,5-diamine] | ≤ 500 nM | > 10000 nM | ≤ 500 nM |
| Cc1cnnc(N(Cc2ccc(-c3noc(C(F)(F)F)n3)s2)c2cnccn2)c1 [Example GN, 5-Methyl-N-(pyrazin-2-yl)-N-({5-[5-(trifluoromethyl)-1,2,4-oxadiazol-3-yl]thiophen-2-yl}methyl)pyridazin-3-amine] | ≤ 1000 nM | > 10000 nM | ≤ 500 nM |
| FC(F)(F)c1cnnc(N(Cc2ccc(-c3noc(C(F)(F)F)n3)s2)c2cnccn2)c1 [Example EF, N-(Pyrazin-2-yl)-5-(trifluoromethyl)-N-({5-[5-(trifluoromethyl)-1,2,4-oxadiazol-3-yl]thiophen-2-yl}methyl)pyridazin-3-amine] | ≤ 10000 nM | > 10000 nM | ≤ 500 nM |
| COc1cnc(N(Cc2ccc(-c3noc(C(F)(F)F)n3)s2)c2cnccn2)cn1 [Example BI, 5-Methoxy-N-(pyrazin-2-yl)-N-({5-[5-(trifluoromethyl)-1,2,4-oxadiazol-3-yl]thiophen-2-yl}methyl)pyrazin-2-amine] | ≤ 10000 nM | > 10000 nM | ≤ 1000 nM |
| [O-][S+]1CCN(Cc2ccc(N(Cc3ccc(-c4noc(C(F)(F)F)n4)s3)c3cnccn3)nn2)CC1 [Example FO, 4-({6-[(Pyrazin-2-yl)({5-[5-(trifluoromethyl)-1,2,4-oxadiazol-3-yl]thiophen-2-yl}methyl)amino]pyridazin-3-yl}methyl)-1lambda4-thiomorpholin-1-one] | ≤ 1000 nM | > 10000 nM | ≤ 500 nM |
| COc1cncc(N(Cc2ccc(-c3noc(C(F)(F)F)n3)s2)c2cc(C(F)(F)F)cnn2)n1 [Example EN, N-(6-Methoxypyrazin-2-yl)-5-(trifluoromethyl)-N-({5-[5-(trifluoromethyl)-1,2,4-oxadiazol-3-yl]thiophen-2-yl}methyl)pyridazin-3-amine] | ≤ 10000 nM | – | ≤ 500 nM |
